Data set [1] in a line: Ocular PK in Brown Norway rats following a single oral dose (Example 5). The data set is classed as in vivo. The note with it: for Kp / AUC(0-t): Brown Norway, rat; for Kp: retina/plasma, po; for AUC(0-t): sampling 6-144 hrs; for Concentration over time in posterior eye cup and retina (words, FIG. 3-6): single oral dose per Table 3 (Compound 1 30 mg/kg, Compound 2 10 mg/kg, Compound 9 10 mg/kg). On the procedure: Three month old Brown Norway rats were administered orally with active agent of Table 1 at the dosing concentration and formulation specified in Table 3 infra. […] The ocular tissues collected were the retina and the posterior eye cup.
Ocular tissues were homogenized and plasma proteins precipitated and drug concentration was analyzed by LC-MS/MS.

The test system of data set [2] is laser-induced choroidal neovascularization (CNV) area. The data set is described as follows: Rat laser-induced choroidal neovascularization (CNV) model; daily administration (Example 1). It counts as in vivo, Brown Norway rats. Conditions: 264 h, read-out: Efficacy Daily % (Ex. 1); for inhibition in vivo at 0.3 mg/kg: 0.3 mg/kg oral daily to day 11 or 12, formulation A; for inhibition in vivo at 1 mg/kg: 1 mg/kg oral daily to day 11 or 12, formulation A. As for the experimental part: Three month old Brown Norway rats were administered with placebo or active agent of Table 1 at the dosing concentration and formulation specified in Table 2 infra about one hour prior to laser application. The rat eyes were dilated with one drop of phenylephrine and cyclopentolate (Altaire Pharmaceuticals inc. Aqueboque, N.Y. and Akorn Inc. Lake Forest, Ill.) and then immobilized. Each eye was administered four laser burns 2-3 disc diameters from the optic nerve with an Oculight GLx 532 nm laser (Iridex). Each study group had 10 rats, 20 eyes and 80 data points.
After laser insult, the rats were administered placebo or the compounds of Table 1 at the dosing concentration and formulation specified in Table 2 daily from day 1 to day 11 or 12. Immediately before harvesting the eyes, rodents were injected i.v. with a 2,000 kd fluorescein isothiocyanate (FITC) dextran vascular label. Tissues were harvested about 24 hours after the last dose was administered.
Eyes were fixed with 4% paraformaldehyde and the retinal pigment epithelium(RPE)/choroid/sclera complexes dissected and placed onto microscope slides. Fluorescent images of each CNV lesion were captured and lesion areas were quantified on masked data using Axiovision software (Version 4.5 Zeiss). Inter-group differences were analyzed by one-way analysis of variance (ANOVA) with a Neuman-Keuls post hoc analysis (Prism v. 4.02 by GraphPad Software, Inc. La Jolla Calif.). Efficacy is defined herein to mean the percentage reduction in CNV area after treatment compared to placebo.
Each group consisted of 10 rats, 4 laser burns/eye, and 80 data points/group. Assay length was 11 or 12 days after laser (1 mg/kg n=2, 3 mg/kg n=5, 10 mg/kg n=7, 30 mg/kg n=1).

Data set [3] shares this test system. The data set is described as follows: Rat laser-induced CNV model; weekly administration (Example 3). The note with it: for inhibition in vivo at 0.3 mg/kg: 0.3 mg/kg weekly (before laser, day 6 and 13); for inhibition in vivo at 1 mg/kg: 1 mg/kg weekly (before laser, day 6 and 13); for Efficacy in a weekly dosing regimen: weekly dosing at doses of Table 2, compared to daily; for inhibition in vivo at 3 mg/kg: 3 mg/kg weekly (before laser, day 6 and 13), formulation A (B for Compound 9). The data set is classed as in vivo, Brown Norway rats. As for the experimental part: After laser insults, the rats were administered the compounds of Table 1 formulated as specified in Table 2 or placebo on day 6 and 13.

In data set [4] the test system is neovascular adult macular degeneration (AMD). The note with it: oral, alone or with intravitreal bevacizumab, daily or thrice weekly, three patients; cited from earlier work.
Setting [5] is: percent reduction in CNV area vs vehicle control.
The mark [6] stands for this setting: Rattus norvegicus, 144 h, formulation A, percent reduction in CNV area vs vehicle control, read-out: Efficacy Weekly % (Ex. 3).
Where [7] appears, read: 3 mg/kg oral daily to day 11 or 12, formulation A (B for Compound 9), percent reduction in CNV area vs vehicle control.
[8] abbreviates: Rattus norvegicus, 144 h, percent reduction in CNV area vs vehicle control, read-out: Efficacy Weekly % (Ex. 3).

Entries after “also recorded” stand apart in the source; their conditions may differ. Like-named read-outs stand apart in the source and are kept apart here.

Here are results for nine molecules from patent US20130197016A1, “DOSING REGIMES FOR THE TREATMENT OF OCULAR VASCULAR DISEASE” (priority 2010, published 2013).

Turning to `Cc1ccc(Nc2nccc(N(C)c3ccc4c(C)n(C)nc4c3)n2)cc1S(N)(=O)=O` [Compound 1, 5-[[4-[(2,3-Dimethyl-2H-indazol-6-yl)methylamino]-2-pyrimidinyl]amino]-2-methylbenzolsulfonamide], in data set [1] (30 mg/kg), the Kp came out at 0.2. For the same molecule, the AUC(0-t) worked out at 583 µM·h in data set [1] (single oral dose 30 mg/kg, plasma, read-out: AUC(last) Plasma); 6820 µM·h in data set [1] (single oral dose 30 mg/kg, posterior eye cup, read-out: AUC(last) PEC); 132 µM·h in data set [1] (single oral dose 30 mg/kg, retina, read-out: AUC(last) Retina). Further, the “Plasma exposure over time (words, FIG. 3-4)” value in data set [1] (single oral dose per Table 3 (Compound 1 30 mg/kg, Compound 2 10 mg/kg)) is reported as “increased plasma exposure throughout the duration of the week after administration”. For the same molecule, the “Concentration over time in posterior eye cup and retina (words, FIG. 3-6)” value in data set [1] is “sustained ocular exposure in the posterior eye cup tissues for at least a week”. In addition, the inhibition in vivo at 30 mg/kg is 42% in data set [2] (30 mg/kg oral daily to day 11 or 12, formulation A, percent reduction in CNV area vs vehicle control); 50% in data set [3] (Rattus norvegicus, 144 h, 30 mg/kg weekly (before laser, day 6 and 13), formulation A, percent reduction in CNV area vs vehicle control, read-out: Efficacy Weekly % (Ex. 3)).
Regarding `COc1cc2nccc(Oc3ccc(NC(=O)Nc4cc(C)on4)c(Cl)c3)c2cc1OC` [Compound 6, 1-(2-chloro-4-((6,7-dimethoxyquinolin-4-yl)oxy)phenyl)-3-(5-methylisoxazol-3-yl)urea], the Kp in data set [1] (0.3 mg/kg) amounted to 0.6. Moreover, the AUC(0-t) in data set [1] (single oral dose 0.3 mg/kg, plasma, read-out: AUC(last) Plasma) stood at 1.2 µM·h; in data set [1] (single oral dose 0.3 mg/kg, posterior eye cup, read-out: AUC(last) PEC) it was 83.5 µM·h; in data set [1] (single oral dose 0.3 mg/kg, retina, read-out: AUC(last) Retina), 2.47 µM·h. In addition, in data set [1] (single oral dose per Table 3 (Compound 2 10 mg/kg, Compound 6 0.3 mg/kg)), the “Retinal to plasma exposure ratio, comparison among compounds” value is listed as “lower retinal to plasma exposure ratio than Compound 2”. For the same molecule, the inhibition in vivo at 0.3 mg/kg in data set [2] (setting [5]) is 79%; in data set [3] (setting [6]), 40%. Moreover, the figures for the inhibition in vivo at 1 mg/kg in data set [2] (setting [5]) and in data set [3] (setting [6]) were 96% and 90%, respectively. Moreover, in data set [3] (0.3 mg/kg), the “Loss of efficacy in weekly dosing compared to daily dosing” value is 39%. The “Efficacy in a weekly dosing regimen” value in data set [3] is listed as “greatest level of efficacy”.
`O=C(Nc1cccc(C(F)(F)F)c1)c1cccc2cc(Oc3cc(CO)ncn3)ccc12` [Compound 7, 6-(6-Hydroxymethyl-pyrimidin-4-yloxy)-naphthalene-1-carboxylic acid (3-trifluoromethyl-phenyl)-amide]: the inhibition in vivo at 3 mg/kg in data set [2] (setting [7]) came out at 96%; in data set [3] (setting [8]), 46%.
For `Nc1cc(Oc2ccc3c(C(=O)Nc4cccc(C(F)(F)F)c4)cccc3c2)ncn1` [Compound 3, 6-(6-Amino-pyrimidin-4-yloxy)-naphthalene-1-carboxylic acid (3-trifluoromethyl-phenyl)-amide], the inhibition in vivo at 1 mg/kg was 63% in data set [2] (setting [5]) and 57% in data set [3] (setting [6]). Also, in data set [3], the “Efficacy in a weekly dosing regimen” value was “greatest level of efficacy”.
`CC(=O)N1Cc2ncnc(Oc3ccc4c(ccn4C(=O)Nc4cc(C5CC5)on4)c3)c2C[C@@H]1C` [Compound 4, (−)-5-((S)-7-Acetyl-6-methyl-5,6,7,8-tetrahydro-pyrido[3,4-d]pyrimidin-4-yloxy)-indole-1-carboxylic acid (5-cyclopropyl-isoxazol-3-yl)-amide]: the inhibition in vivo at 0.3 mg/kg in data set [2] (setting [5]) came out at 96%; in data set [3] (setting [6]), 50%.
Consider `CC1(c2cc(NC(=O)n3ccc4cc(Oc5ncnc6c5CCNC6)ccc43)[nH]n2)CC1` [Compound 5, 5-(5,6,7,8-Tetrahydro-pyrido[3,4-d]pyrimidin-4-yloxy)-indole-1-carboxylic acid [5-(1-methyl-cyclopropyl)-2H-pyrazol-3-yl]-amide], for which the inhibition in vivo at 10 mg/kg in data set [2] (10 mg/kg oral daily to day 11 or 12, formulation A, percent reduction in CNV area vs vehicle control) was 85%; in data set [3] (Rattus norvegicus, 144 h, 10 mg/kg weekly (before laser, day 6 and 13), formulation A, percent reduction in CNV area vs vehicle control, read-out: Efficacy Weekly % (Ex. 3)), 50%.
In data set [1] (10 mg/kg), `CNC(=O)c1cc(Oc2ccc(NC(=O)Nc3ccc(Cl)c(C(F)(F)F)c3)cc2)ccn1` [Compound 9, 4-[4-[[4-chloro-3-(trifluoromethyl)phenyl]carbamoylamino]phenoxy]-N-methyl-pyridine-2-carboxamide] came in with a Kp of 2.1. The AUC(0-t) came to 151 µM·h in data set [1] (single oral dose 10 mg/kg, plasma, read-out: AUC(last) Plasma); 82 µM·h in data set [1] (single oral dose 10 mg/kg, posterior eye cup, read-out: AUC(last) PEC); 95.1 µM·h in data set [1] (single oral dose 10 mg/kg, retina, read-out: AUC(last) Retina). The “Concentration over time in posterior eye cup and retina (words, FIG. 3-6)” value in data set [1] was “substantially similar at each sampling time point”. Also, the values for the inhibition in vivo at 3 mg/kg in data set [2] (po) and in data set [3] (setting [8]) were 90% and 26%, respectively. For the same molecule, in data set [3], the “Efficacy in a weekly dosing regimen” value is recorded as “least efficacy; also recorded: absence of efficacy”. Besides, in data set [4], the “Benefit in neovascular AMD patients” value is recorded as “uncertain benefit”.
As for `O=C(Nc1cc(C2CC2)on1)n1ccc2cc(Oc3ncnc4c3CNC4)ccc21` [Compound 8, 5-(6,7-dihydro-5H-pyrrolo[3,4-d]pyrimidin-4-yloxy)-indole-1-carboxylic acid (5-cyclopropyl-isoxazol-3-yl)-amide], the inhibition in vivo at 3 mg/kg in data set [2] (setting [7]) stood at 88%; in data set [3] (setting [8]), 26%. Moreover, the “Efficacy in a weekly dosing regimen” value in data set [3] is given as “least efficacy”.
In the case of `CNCc1cc(Oc2ccc3c(ccn3C(=O)Nc3cc(C(F)(F)F)n(C)n3)c2)ncn1` [Compound 10, 5-(6-Methylaminomethyl-pyrimidin-4-yloxy)-indole-1-carboxylic acid (1-methyl-5-trifluoromethyl-1H-pyrazol-3-yl)-amide], the inhibition in vivo at 1 mg/kg in data set [2] (setting [5]) came out at 88%; in data set [3] (setting [6]) it was 23%. Besides, in data set [3], the “Efficacy in a weekly dosing regimen” value is reported as “least efficacy”.
